From patent US20260125375A1 (Pfizer Inc., priority 2022, published 2026)

Tests used:
[1] = target: T1, CBL-B (residues 36-427) (Homo sapiens, UniProt Q13191); experiment: Ligand Displacement Assay (LDA), HTRF competitive binding against BODIPY-labeled fluorescent tracer, CBL-B; settings: geometric mean of the number of tests, read-out: CBL-B Ki (nM) GMean
T1 construct: Purified CBL-B (residues 36-427) and C-CBL (residues 46-435) proteins from baculovirus-infected insect cells; made in house; host or cells: baculovirus-infected insect cells
Outline: (§1)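 Terbium-streptavidin donor on BirA-biotinylated, AviTagged protein from baculovirus-infected insect cells; BODIPY tracer as acceptor. Compound titrations were three-fold and duplicated, […] with 2% DMSO final.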

[2] = target: T2, C-CBL (residues 46-435) (Homo sapiens, UniProt P22681); experiment: Ligand Displacement Assay (LDA), HTRF competitive binding against BODIPY-labeled fluorescent tracer, C-CBL; settings: geometric mean of the number of tests, read-out: C-CBL Ki (nM) GMean
T2 construct: Purified CBL-B (residues 36-427) and C-CBL (residues 46-435) proteins from baculovirus-infected insect cells; made in house; host or cells: baculovirus-infected insect cells
T2 sequence (P22681 46-435): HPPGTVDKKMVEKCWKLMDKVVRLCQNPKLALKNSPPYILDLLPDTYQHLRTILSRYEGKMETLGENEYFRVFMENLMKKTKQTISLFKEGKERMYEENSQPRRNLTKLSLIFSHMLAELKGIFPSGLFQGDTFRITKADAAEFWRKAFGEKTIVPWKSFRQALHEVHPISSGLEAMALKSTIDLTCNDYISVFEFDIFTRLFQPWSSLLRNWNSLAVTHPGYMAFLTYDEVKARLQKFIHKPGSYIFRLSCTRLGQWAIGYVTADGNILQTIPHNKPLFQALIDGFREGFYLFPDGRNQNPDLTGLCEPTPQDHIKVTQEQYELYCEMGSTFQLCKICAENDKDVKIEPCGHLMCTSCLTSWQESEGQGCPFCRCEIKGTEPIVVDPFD
Outline: as §1

[3] = target: T3, WT CBL-B (36-427) (Homo sapiens, UniProt Q13191); experiment: Surface Plasmon Resonance (SPR) assay, binding affinity and kinetics, CBL-B; settings: SPR at 10° C., biotinylated WT CBL-B (36-427) on streptavidin chip; geometric mean; read-out: CBL-B SPR Kd (nM) GMean
T3 construct: N-terminal biotinylated WT CBL-B (36-427) and C-CBL (46-435) were captured on a streptavidin (SA) coated sensor chip
Experimental: (§2) Surface Plasmon Resonance (SPR) Assay
(§3) The purpose of the SPR assay is to evaluate the binding affinity and kinetics of the compound of disclosure binding to CBL-B and C-CBL.
(§4) The binding affinity and kinetics of compound binding to CBL-B and C-CBL were measured by Surface Plasmon Resonance (SPR) using either Biacore S200, 8K or 8K+ (Cytiva, Marlborough, MA) instruments. N-terminal biotinylated WT CBL-B (36-427) and C-CBL (46-435) were captured on a streptavidin (SA) coated sensor chip to achieve approximately 5000 to 6000 RUs of surface density. Un-functionalized SA surfaces with no immobilized protein served as reference for binding kinetic analysis. All the samples were prepared in buffer consisting of 10 mM HEPES, 150 mM NaCl, 0.05% Tween-20, 5% glycerol, […], 2% DMSO, pH 7.2. The same buffer was used as the running buffer during the experiments. Compound binding kinetics were measured in either multi-cycle or single-cycle kinetic format.
(§5) Multi-cycle kinetic analysis (MCK): A two-fold, 10-point serial dilution of test compounds was set-up in a 96-well microplate (Greiner; Cat #650101) with a top concentration of either 10 μM or 100 μM. Binding kinetics was measured at 10° C. by injecting serial dilution of compounds onto both reference and CBL immobilized channels at a flow rate of 100 μL/min and association time of 90 seconds. Compound dissociation was monitored for >400 seconds during each cycle. No additional regeneration was used. DMSO calibration curve was obtained before and after compound analysis by injecting 0-4% of DMSO in assay buffer. A suitable compound with known affinity and kinetics was tested once in every experiment as a positive control to assess activity of the captured proteins on the surface.
(§6) Single-cycle kinetic analysis (SCK): A 3-fold, 6-point serial dilution of compounds was set-up in a deep 96-well microplate (Greiner Bio; Cat #780201) with the highest concentration of 1 μM (concentration range: […]). Binding kinetics was measured at 10° C. by injecting serial dilutions of compounds in increasing order onto reference as well as CBL immobilized channels at a flow rate of 100 μL/min and association time of 120 seconds. Compound dissociation was monitored for >5400 seconds. Two buffer blanks were also run in a single-cycle kinetics format before the compound run for double referencing. No additional regeneration was used. DMSO calibration curve was obtained before and after compound analysis by injecting 0-4% of DMSO in the assay buffer. A suitable compound with known affinity and kinetics was tested once in every experiment as a positive control to assess activity of the captured proteins on the surface.

[4] = target: T4, C-CBL (46-435) (Homo sapiens, UniProt P22681); experiment: Surface Plasmon Resonance (SPR) assay, binding affinity and kinetics, C-CBL; settings: SPR at 10° C., biotinylated C-CBL (46-435) on streptavidin chip; geometric mean; read-out: C-CBL SPR Kd (nM) GMean
T4 construct: N-terminal biotinylated WT CBL-B (36-427) and C-CBL (46-435) were captured on a streptavidin (SA) coated sensor chip
T4 sequence (P22681 46-435): T2 sequence (P22681 46-435)
Experimental: as §2, §3, §4, §5, §6

SMILES | Ki [1] | Ki [2] | Kd [3] | Kd [4]
Cn1cnnc1[C@@H](c1cccc(-c2n[nH]c3c(CN[C@H]4CC[C@@H](O)C4)nc(C(F)(F)F)cc23)c1)C1CCC1 [Example D87] | 12.2 nM | 112 nM | 4.8 nM | 128 nM
Cn1cnnc1[C@@H](c1cccc(-c2n[nH]c3c(CN4CC(F)C4)nc(C(F)(F)F)cc23)c1)C1CCC1 [Example C106, 3-{3-[(R)-cyclobutyl(4-methyl-4H-1,2,4-triazol-3-yl)methyl]phenyl}-7-[(3-fluoroazetidin-1-yl)methyl]-5-(trifluoromethyl)-1H-pyrazolo[3,4-c]pyridine] | 41.6 nM | 475 nM | 5.9 nM | 265 nM
Cn1cnnc1CC1(c2cccc(-c3n[nH]c4cnc(OC(F)(F)F)cc34)c2)COC1 [Example B9, 3-(3-{3-[(4-methyl-4H-1,2,4-triazol-3-yl)methyl]oxetan-3-yl}phenyl)-5-(trifluoromethoxy)-1H-pyrazolo[3,4-c]pyridine] | 74.5 nM | 238 nM | 32.5 nM | 244 nM
Cn1cnnc1CC1(c2cccc(-c3n[nH]c4c(CN[C@H]5CCOC5)nc(C(F)(F)F)cc34)c2)COC1 [Example C50] | 24.7 nM | 90 nM | 14.5 nM | 145 nM
Cn1cnnc1CC1(c2cccc(-c3n[nH]c4c(CNC5CC(F)(F)C5)nc(C(F)(F)F)cc34)c2)COC1 [Example C78, 3,3-difluoro-N-{[3-(3-{3-[(4-methyl-4H-1,2,4-triazol-3-yl)methyl]oxetan-3-yl}phenyl)-5-(trifluoromethyl)-1H-pyrazolo[3,4-c]pyridin-7-yl]methyl}cyclobutan-1-amine] | 56.6 nM | 253 nM | 10 nM | 144 nM
Cn1cnnc1CC1(c2cccc(-c3n[nH]c4c(CN5CCNCC5)nc(C(F)(F)F)cc34)c2)COC1 [Example C64, 3-(3-{3-[(4-methyl-4H-1,2,4-triazol-3-yl)methyl]oxetan-3-yl}phenyl)-7-[(piperazin-1-yl)methyl]-5-(trifluoromethyl)-1H-pyrazolo[3,4-c]pyridine] | 31.2 nM | 117 nM | 3 nM | 65.2 nM
CCNC(C)c1nc(C(F)(F)F)cc2c(-c3cccc(C4(Cc5nncn5C)COC4)c3)n[nH]c12 (single isomer, unassigned) [Example C84, (1ξ)-N-ethyl-1-[3-(3-{3-[(4-methyl-4H-1,2,4-triazol-3-yl)methyl]oxetan-3-yl}phenyl)-5-(trifluoromethyl)-1H-pyrazolo[3,4-c]pyridin-7-yl]ethan-1-amine] | 25.1 nM | 144 nM | 5.8 nM | 99 nM
Cn1cnnc1[C@@H](c1cccc(-c2n[nH]c3c(CN4CCNCC4)nc(C(F)(F)F)cc23)c1)C1CCC1 [Example D84] | 21.9 nM | 144 nM | 5.6 nM | 148 nM
Cn1cnnc1[C@@H](c1cccc(-c2n[nH]c3c(C4CCCCN4)nc(C(F)(F)F)cc23)c1)C1CCC1 (single isomer, unassigned) [Example L2] | 90.1 nM | 721 nM | 30 nM | 307 nM
